# Data as given in ChEMBL document CHEMBL1201862, “PubChem BioAssay data set” (2004).
# The source made the active and inactive calls.
# Columns and labels:
# [1] = biological target: Cytochrome P450 2C9 (Homo sapiens, UniProt P11712); details: Potency
# [2] = inhibitors of SNCA 5'UTR-driven reporter translation, confirmation, H4 neuroglioma cells, luminescence (AID 1988); assay type: functional, cell-based
# [3] = inhibitors of firefly luciferase expression or activity, dose response, H4 neuroglioma cells, luminescence (AID 1990); assay type: functional, cell-based
# [4] = biological target: T1, Histone-lysine N-methyltransferase NSD2 (Homo sapiens, UniProt O96028); assay type: biochemical
# T1 sequence (O96028 whole entry): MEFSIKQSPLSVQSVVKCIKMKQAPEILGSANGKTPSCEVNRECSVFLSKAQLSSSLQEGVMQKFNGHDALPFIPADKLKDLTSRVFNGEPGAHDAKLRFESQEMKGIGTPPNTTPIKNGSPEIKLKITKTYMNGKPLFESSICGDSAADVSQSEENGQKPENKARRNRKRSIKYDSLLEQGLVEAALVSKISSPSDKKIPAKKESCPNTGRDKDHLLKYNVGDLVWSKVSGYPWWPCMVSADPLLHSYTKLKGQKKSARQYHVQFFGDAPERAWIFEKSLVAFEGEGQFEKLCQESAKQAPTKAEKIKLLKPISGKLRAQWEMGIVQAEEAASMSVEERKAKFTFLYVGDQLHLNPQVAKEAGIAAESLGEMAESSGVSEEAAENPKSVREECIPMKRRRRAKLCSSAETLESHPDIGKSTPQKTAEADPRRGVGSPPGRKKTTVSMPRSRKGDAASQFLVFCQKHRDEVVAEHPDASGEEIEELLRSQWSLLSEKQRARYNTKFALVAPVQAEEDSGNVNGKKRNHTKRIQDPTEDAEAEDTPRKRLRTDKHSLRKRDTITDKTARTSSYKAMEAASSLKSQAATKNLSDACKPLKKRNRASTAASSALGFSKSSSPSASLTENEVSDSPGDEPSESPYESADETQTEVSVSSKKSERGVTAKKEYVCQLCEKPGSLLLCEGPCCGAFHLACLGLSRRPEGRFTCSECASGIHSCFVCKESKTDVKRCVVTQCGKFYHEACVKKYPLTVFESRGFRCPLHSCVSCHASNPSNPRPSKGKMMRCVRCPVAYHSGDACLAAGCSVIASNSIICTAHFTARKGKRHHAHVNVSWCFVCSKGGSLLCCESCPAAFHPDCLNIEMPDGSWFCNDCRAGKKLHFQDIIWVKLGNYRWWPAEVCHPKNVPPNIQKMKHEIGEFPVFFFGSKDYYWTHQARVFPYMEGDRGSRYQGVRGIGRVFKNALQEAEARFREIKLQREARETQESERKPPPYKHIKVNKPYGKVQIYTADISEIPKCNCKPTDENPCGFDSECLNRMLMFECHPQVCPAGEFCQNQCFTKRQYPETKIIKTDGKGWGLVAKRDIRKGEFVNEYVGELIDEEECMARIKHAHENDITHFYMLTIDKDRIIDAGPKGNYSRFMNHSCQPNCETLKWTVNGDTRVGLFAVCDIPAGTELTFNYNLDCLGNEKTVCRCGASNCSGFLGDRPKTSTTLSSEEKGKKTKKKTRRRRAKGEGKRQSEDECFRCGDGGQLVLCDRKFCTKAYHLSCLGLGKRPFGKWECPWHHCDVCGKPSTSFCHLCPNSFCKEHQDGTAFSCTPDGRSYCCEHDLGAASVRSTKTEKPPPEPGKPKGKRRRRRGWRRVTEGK
# [5] = inhibitors of SNCA 5'UTR-driven translation, confirmation, luminescence, H4 neuroglioblastoma cells, dose confirmation (AID 2454); assay type: functional, cell-based;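 also: H4 neuroglioblastoma cells carrying an alpha-synuclein 5'UTR luciferase reporter; potency for inhibition of the luciferase signal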
# [6] = Luminescence Cell-Based Dose Response HTS to Identify Inhibitors of 5'UTR Stem-Loop Driven Prion Protein mRNA Translation in H4 Neuroglioblastoma Cells. [Related pubchem assays: 1827 (Project Summary), 1813 (Primary HTS)]; assay type: functional
# [7] = cytotoxicity in HEK-293T cells, dose response, cytotoxicity control for TCR NF-kB inhibitor project, luminescence, T-cell screen hits (AID 489026); assay type: functional, cell-based;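 also: cells exposed to compound about 14 hours before the viability readout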
# [8] = biological target: Heat shock protein HSP 90-alpha (Homo sapiens, UniProt P07900); test: Luminescence-based dose response biochemical high throughput screening assay for inhibitors of the Heat Shock Protein 90 (HSP90). [Related pubchem assays: 1831 (Summary AID.), 1846 (Confirmation screen.), 1789 (Primary screen.)]
# [9] = Luminescence-based counterscreen assay for KLF5 inhibitors: dose response cell-based high throughput screening assay to identify cytotoxic compounds using the IEC-6 intestinal epithelial cell line. [Related pubchem assays: 1700 (Primary screen.), 1834 (Confirmation screen.), 1858 (Summary AID.), 1905 (Counterscreen.)]; assay type: functional
# [10] = cells; assay type: functional, cell-based
# [11] = luciferase reporter signal reduction – luminescence, H4-C neuroglioblastoma cells, dose response (AID 2458); assay type: functional, cell-based;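 also: H4 neuroglioblastoma cells stably carrying a luciferase reporter gene fusion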
# [12] = biological target: T2, Hexokinase HKDC1 (Homo sapiens, UniProt Q2TB90); test: HKDC1 hexokinase inhibitors, dose response, biochemical, W721R variant (AID 504729); assay type: functional
# T2 sequence (Q2TB90 whole entry): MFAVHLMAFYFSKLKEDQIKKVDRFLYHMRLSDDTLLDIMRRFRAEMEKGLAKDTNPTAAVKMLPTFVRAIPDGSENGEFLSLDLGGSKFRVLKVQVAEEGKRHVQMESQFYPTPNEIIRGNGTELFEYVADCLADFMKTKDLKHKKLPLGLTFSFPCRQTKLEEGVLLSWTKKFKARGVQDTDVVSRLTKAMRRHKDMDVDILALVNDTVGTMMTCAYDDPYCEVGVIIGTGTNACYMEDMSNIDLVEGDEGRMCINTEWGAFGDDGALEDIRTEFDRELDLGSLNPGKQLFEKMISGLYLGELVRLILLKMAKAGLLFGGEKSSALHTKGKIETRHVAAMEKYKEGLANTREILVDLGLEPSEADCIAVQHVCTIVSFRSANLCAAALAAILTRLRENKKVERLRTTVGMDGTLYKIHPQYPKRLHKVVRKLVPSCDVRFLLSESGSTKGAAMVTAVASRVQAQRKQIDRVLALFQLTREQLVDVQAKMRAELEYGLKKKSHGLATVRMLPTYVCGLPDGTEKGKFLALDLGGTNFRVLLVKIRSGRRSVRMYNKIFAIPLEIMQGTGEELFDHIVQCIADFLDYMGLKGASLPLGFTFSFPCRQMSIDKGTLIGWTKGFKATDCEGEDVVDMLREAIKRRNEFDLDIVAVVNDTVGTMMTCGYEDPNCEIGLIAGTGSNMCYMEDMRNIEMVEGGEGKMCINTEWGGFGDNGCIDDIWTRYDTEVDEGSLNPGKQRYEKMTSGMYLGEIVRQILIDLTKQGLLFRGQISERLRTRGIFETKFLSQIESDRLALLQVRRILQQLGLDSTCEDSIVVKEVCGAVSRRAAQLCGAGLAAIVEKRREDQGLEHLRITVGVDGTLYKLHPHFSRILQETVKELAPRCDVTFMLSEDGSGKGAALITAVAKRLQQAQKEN
# [13] = biological target: Oxytocin receptor (Homo sapiens, UniProt P30559); test: Fluorescence-based cell-based high throughput dose response assay for agonists of the Oxytocin Receptor (OXTR). [Related pubchem assays: 2435 (Primary screen (OXTR agonists in singlicate)), 434991 (Counterscreen (V1R agonists in triplicate)), 2482 (Summary (OXTR agonists)), 434963 (Confirmation screen (OXTR agonists in triplicate))]; assay type: functional
# [14] = biological target: Vasopressin V1a receptor (Homo sapiens, UniProt P37288); test: Counterscreen for Oxytocin Receptor (OXTR) agonists: Fluorescence-based cell-based high throughput dose response assay to identify agonists of the vasopressin 1 receptor (V1R). [Related pubchem assays: 2435 (Primary screen (OXTR agonists in singlicate)), 434991 (Counterscreen (V1R agonists in triplicate)), 2482 (Summary (OXTR agonists)) …; assay type: functional
# [15] = biological target: Dual specificity protein phosphatase 6 (Rattus norvegicus, UniProt Q64346); assay type: functional;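 also: confirmatory in vitro dose-response testing of MKP-3 inhibition; recombinant His-tagged MKP-3 made in E. coli BL21 with OMFP substrate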
# [16] = biological target: T3, Tyrosine-protein phosphatase non-receptor type 7 (Homo sapiens, UniProt P35236); test: redox-dependent HePTP inhibition, mechanism study, biochemical, fluorescence (AID 2068); assay type: functional
# T3 sequence (P35236 whole entry): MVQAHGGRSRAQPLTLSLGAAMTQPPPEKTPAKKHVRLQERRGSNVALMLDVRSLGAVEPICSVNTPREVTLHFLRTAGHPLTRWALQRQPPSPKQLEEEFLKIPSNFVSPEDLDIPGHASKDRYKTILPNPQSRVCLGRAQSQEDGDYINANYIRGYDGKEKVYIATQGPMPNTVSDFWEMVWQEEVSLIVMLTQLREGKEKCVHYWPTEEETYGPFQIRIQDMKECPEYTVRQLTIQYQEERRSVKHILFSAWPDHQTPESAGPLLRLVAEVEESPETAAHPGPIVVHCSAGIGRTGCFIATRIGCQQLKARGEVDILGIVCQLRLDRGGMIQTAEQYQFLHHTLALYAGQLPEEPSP
# [17] = biological target: T4, Dual specificity protein phosphatase 3 (Homo sapiens, UniProt P51452); test: SAR VHR1 absorbance Assay for In Vitro dose response studies. [Related pubchem assays (depositor defined):AID1654, AID1661, AID1878, AID1992, AID2004]
# [18] = biological target: T4, Dual specificity protein phosphatase 3; test: SAR VHR1 Fluorescent Assay for In Vitro dose response studies. [Related pubchem assays (depositor defined):AID1654, AID1661, AID1878, AID1992, AID2004, AID2070, AID2085]; assay type: functional
# [19] = biological target: T4, Dual specificity protein phosphatase 3; test: MOA VHR1 Fluorescent secondary assay for identification of redox-state modulating compounds. [Related pubchem assays (depositor defined):AID1654, AID1661, AID1878, AID1957]
# [20] = biological target: T5, Rac GTPase-activating protein 1 (Homo sapiens, UniProt Q9H0H5); test: MgcRacGAP GTPase-activating activity inhibitors, confirmation, biochemical, ADP Hunter fluorescence, primary and confirmatory (AID 624330); assay type: functional
# T5 sequence (Q9H0H5 whole entry): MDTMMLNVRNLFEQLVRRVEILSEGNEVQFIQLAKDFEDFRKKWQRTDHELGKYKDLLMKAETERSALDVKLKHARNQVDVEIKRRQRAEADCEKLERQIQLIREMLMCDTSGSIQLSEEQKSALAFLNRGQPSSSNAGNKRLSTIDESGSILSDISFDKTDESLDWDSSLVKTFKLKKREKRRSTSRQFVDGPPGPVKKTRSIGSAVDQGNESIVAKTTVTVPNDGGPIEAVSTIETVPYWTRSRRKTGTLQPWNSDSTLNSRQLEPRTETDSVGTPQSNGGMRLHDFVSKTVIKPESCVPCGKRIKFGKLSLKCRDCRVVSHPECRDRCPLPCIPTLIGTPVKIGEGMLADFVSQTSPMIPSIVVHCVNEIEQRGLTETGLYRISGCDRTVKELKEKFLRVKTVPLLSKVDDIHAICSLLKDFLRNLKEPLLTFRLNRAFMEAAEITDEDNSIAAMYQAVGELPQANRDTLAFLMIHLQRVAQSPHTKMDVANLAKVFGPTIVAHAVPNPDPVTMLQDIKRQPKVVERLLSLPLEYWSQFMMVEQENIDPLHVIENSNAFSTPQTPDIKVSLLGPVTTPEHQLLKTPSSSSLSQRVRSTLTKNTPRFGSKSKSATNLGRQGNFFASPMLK
# [21] = biological target: Aspartyl aminopeptidase (Plasmodium falciparum 3D7, UniProt Q8I2J3)
# [22] = biological target: Procathepsin L (Homo sapiens, UniProt P07711)
# [23] = biological target: DNA dC->dU-editing enzyme APOBEC-3G (Homo sapiens, UniProt Q9HC16); assay type: functional;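 also: Dose-response counterscreen measuring inhibition of APOBEC3G DNA deaminase activity, run while confirming APOBEC3A inhibitors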
# [24] = biological target: Eukaryotic translation initiation factor 4H (Homo sapiens, UniProt Q15056); test: human eIF4H binding inhibitors, primary screen, translation initiation inhibitor project, biochemical, uHTS, fluorescence polarization (AID 2012)
# [25] = biological target: DNA dC->dU-editing enzyme APOBEC-3A (Homo sapiens, UniProt P31941); test: Dose Response confirmation of small molecule APOBEC3A DNA Deaminase Inhibitors via a fluorescence-based single-stranded DNA deaminase assay. [Related pubchem assays (depositor defined):AID493011, AID493024]; assay type: functional
# [26] = biological target: Polyadenylate-binding protein 1 (Homo sapiens, UniProt P11940); test: PABP poly(A) RNA binding inhibitors, primary screen, biochemical, fluorescence polarization, uHTS (AID 2014)
# Chain of Polyadenylate-binding protein 1 (P11940 whole entry): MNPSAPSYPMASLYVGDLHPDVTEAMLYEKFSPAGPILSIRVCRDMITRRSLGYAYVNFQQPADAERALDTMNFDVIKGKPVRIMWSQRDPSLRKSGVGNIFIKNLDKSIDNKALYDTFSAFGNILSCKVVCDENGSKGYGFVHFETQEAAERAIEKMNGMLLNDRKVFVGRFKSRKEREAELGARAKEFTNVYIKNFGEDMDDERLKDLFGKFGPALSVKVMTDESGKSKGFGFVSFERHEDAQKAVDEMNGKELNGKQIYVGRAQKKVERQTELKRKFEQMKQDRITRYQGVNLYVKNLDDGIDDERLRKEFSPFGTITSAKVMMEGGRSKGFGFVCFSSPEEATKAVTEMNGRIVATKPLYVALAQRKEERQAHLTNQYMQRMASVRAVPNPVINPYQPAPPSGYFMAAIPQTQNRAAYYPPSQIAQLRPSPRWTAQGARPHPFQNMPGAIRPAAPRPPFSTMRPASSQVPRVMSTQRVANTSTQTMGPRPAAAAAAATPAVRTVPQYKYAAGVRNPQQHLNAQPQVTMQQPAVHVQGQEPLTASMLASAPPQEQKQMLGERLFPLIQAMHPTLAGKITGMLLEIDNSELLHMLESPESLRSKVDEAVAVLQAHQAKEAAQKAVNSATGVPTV
# T4 sequence (P51452 whole entry): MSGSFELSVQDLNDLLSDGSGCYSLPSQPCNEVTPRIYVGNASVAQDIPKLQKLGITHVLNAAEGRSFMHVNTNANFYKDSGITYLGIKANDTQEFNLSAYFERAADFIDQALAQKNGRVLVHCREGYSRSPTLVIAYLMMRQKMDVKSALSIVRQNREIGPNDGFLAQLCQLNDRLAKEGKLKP
# Chain of Procathepsin L (P07711 whole entry): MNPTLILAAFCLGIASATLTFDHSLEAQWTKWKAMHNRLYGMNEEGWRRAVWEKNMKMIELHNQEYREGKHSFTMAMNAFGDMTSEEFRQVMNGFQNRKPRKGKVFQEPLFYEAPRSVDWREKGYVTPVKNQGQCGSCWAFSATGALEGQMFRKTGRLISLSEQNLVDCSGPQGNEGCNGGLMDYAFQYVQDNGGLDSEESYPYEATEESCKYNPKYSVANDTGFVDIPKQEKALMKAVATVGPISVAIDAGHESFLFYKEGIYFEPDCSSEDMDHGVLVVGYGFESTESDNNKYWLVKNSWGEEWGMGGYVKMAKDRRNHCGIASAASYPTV
# Chain of DNA dC->dU-editing enzyme APOBEC-3G (Q9HC16 whole entry): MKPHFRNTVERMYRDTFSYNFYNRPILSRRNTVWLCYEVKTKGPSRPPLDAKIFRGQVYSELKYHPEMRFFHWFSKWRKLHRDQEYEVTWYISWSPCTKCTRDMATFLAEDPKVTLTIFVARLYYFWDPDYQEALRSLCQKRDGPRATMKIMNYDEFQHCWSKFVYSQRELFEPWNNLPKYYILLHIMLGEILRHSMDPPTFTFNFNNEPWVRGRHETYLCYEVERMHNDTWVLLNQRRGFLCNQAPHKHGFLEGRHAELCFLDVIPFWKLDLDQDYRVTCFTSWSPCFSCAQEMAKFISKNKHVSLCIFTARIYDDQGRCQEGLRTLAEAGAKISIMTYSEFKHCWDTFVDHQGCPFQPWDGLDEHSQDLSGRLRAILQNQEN
# Chain of Vasopressin V1a receptor (P37288 whole entry): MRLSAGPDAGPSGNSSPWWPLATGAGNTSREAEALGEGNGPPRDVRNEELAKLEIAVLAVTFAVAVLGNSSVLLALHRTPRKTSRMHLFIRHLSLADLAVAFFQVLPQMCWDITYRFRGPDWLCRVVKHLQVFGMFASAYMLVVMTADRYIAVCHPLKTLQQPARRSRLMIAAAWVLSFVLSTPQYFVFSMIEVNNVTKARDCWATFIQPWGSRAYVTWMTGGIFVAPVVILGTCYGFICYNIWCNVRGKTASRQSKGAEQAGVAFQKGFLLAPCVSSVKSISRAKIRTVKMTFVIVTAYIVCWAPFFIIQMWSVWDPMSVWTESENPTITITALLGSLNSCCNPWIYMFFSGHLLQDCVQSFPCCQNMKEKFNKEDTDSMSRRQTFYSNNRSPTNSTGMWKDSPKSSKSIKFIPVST
# Chain of Aspartyl aminopeptidase (Q8I2J3 whole entry): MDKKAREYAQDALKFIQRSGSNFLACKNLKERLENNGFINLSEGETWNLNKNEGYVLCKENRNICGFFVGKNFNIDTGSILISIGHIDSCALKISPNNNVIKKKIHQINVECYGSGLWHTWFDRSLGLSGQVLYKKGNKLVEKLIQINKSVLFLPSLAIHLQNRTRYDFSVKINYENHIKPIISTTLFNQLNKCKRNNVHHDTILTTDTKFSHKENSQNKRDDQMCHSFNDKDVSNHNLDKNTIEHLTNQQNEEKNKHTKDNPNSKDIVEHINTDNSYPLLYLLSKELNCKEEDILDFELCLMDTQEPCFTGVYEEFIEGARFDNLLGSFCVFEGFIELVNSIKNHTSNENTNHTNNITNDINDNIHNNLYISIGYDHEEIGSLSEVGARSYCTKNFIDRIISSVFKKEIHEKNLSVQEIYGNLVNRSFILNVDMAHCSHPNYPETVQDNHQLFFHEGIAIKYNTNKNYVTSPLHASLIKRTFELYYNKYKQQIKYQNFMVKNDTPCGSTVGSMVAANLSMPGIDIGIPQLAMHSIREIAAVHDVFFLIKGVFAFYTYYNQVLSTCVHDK
# Chain of DNA dC->dU-editing enzyme APOBEC-3A (P31941 whole entry): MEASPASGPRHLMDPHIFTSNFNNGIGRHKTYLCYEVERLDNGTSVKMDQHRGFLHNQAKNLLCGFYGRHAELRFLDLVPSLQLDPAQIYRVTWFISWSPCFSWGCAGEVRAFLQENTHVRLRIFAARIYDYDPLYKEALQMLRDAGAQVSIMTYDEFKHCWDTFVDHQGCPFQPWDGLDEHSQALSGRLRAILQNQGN
# Chain of Dual specificity protein phosphatase 6 (Q64346 whole entry): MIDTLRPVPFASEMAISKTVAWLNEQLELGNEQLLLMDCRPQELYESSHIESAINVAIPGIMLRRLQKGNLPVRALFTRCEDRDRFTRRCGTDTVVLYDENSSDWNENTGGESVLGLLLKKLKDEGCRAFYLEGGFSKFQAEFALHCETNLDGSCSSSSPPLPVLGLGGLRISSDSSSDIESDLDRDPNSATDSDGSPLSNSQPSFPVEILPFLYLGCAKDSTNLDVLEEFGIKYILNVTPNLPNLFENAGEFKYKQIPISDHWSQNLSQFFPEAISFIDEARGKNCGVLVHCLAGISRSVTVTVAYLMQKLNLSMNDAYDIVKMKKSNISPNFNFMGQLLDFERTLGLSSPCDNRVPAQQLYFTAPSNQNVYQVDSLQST
# Chain of Cytochrome P450 2C9 (P11712 whole entry): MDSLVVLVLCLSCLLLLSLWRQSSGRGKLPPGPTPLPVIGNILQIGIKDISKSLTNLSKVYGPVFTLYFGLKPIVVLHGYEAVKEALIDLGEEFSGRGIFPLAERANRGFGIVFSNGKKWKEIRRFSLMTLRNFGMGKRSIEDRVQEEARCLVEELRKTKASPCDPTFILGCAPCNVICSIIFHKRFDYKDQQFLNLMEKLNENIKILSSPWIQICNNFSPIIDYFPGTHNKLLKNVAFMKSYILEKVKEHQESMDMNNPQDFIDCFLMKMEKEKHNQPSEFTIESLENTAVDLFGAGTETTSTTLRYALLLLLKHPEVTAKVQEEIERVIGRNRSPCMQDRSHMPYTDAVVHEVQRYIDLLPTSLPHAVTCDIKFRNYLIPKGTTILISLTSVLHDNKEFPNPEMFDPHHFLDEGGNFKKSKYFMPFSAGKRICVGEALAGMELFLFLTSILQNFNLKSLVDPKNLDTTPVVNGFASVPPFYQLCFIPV
# Chain of Oxytocin receptor (P30559 whole entry): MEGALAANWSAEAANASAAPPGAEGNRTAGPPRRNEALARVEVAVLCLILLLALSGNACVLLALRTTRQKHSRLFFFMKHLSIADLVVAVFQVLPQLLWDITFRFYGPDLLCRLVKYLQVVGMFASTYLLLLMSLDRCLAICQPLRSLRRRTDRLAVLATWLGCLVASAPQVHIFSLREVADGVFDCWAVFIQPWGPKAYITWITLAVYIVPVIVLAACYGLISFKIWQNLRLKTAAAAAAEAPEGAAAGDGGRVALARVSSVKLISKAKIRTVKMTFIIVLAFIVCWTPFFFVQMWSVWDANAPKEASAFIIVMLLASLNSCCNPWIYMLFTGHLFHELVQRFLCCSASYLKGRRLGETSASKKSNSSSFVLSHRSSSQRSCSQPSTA
compound,measurement,setting,value
c1csc(CNc2ncnc3ccc(-c4ccc5c(c4)OCO5)cc23)c1,AC50,[1],0.794 µM (inconclusive)
COc1cc(/C=C/[N+](=O)[O-])ccc1OCc1cccc(C(=O)O)c1,EC50,[2],0.161 µM (active)
same,EC50,[3],2.43 µM (inconclusive)
same,AC50,[4],11.9 µM (active)
same,EC50,[5],0.937 µM (active)
same,EC50,[6],< 0.1 µM (active)
same,IC50,[7],> 80 µM (inactive)
same,IC50,[8],7.32 µM (active)
same,IC50,[9],> 39.8 µM (not active)
same,EC50,[10],> 12 µM (inconclusive)
same,EC50,[11],0.99 µM (active)
COC1(NS(=O)(=O)c2ccc(Br)cc2)C(C)=CC(=O)C=C1C,IC50,[12],> 80 µM (inactive)
COc1ccc(C2SCCN2C(S)=Nc2cccc(Cl)c2)cc1 (stereo unspecified),EC50,[13],> 29.9 µM (not active)
same,EC50,[14],> 29.9 µM (not active)
COc1cc(C(S)=NC2CCCCC2)ccc1O,IC50,[15],> 100 µM (inactive)
same,IC50,[16],2.82 µM (active)
same,IC50,[17],> 100 µM (inactive)
same,IC50,[18],22.5 µM (active)
same,IC50,[19],3.4 µM (active)
same,IC50,[20],32.6 µM (active)
CCC(C)c1ccc(O)c(N)c1 (stereo unspecified),IC50,[21],2.25 µM (active)
same,IC50,[22],> 59.6 µM (not active)
Cn1c(SCC(=O)N2CCOCC2)nnc1-c1cccc(NC(=O)c2ccccc2)c1,IC50,[23],3.37 µM (active)
same,IC50,[24],> 100 µM (inactive)
same,IC50,[25],2.62 µM (active)
same,IC50,[26],2.81 µM (active)
